We go through six molecules from article PMC4859512, “Polyamino-Isoprenic Derivatives Block Intrinsic Resistance of P. aeruginosa to Doxycycline and Chloramphenicol In Vitro” (PLoS ONE, 2016).

Like-named read-outs stand apart in the source and are kept apart here.

The test system of experiment [1] is P. aeruginosa PA01 ERY^R (Mex CD overproducer). In words: microbe, parasite or virus in culture. Type of experiment: cell-based, Pseudomonas aeruginosa. Particulars: Pseudomonas aeruginosa. The procedure: (§1) Experiments were performed on the BAC-SCREEN platform of the UMR-MD1, with a Freedom EVO 150 liquid handling system (Tecan, Lyon, France).
(§2) The same experiment was performed using chloramphenicol (4 mg/L) in combination with 3 (10 μM final concentration). […] These experiments were performed to study the effect of our compounds on the natural resistance of P. aeruginosa. […] Experiments were performed with the ß-lactams ceftazidime and ticarcillin and ciprofloxacin and amikacin.

Experiment [2] has as its system P. aeruginosa PT629 (Mex AB overproducer). In words: Antibiotic susceptibility testing (broth micro-dilution MIC), strain PT629. Particulars: Pseudomonas aeruginosa. The experiment is classed as cell-based, Pseudomonas aeruginosa. The procedure:
as §1
(§3) We concluded that compound 3 was the best compound and suitable for a more detailed study. The same experiment was performed using chloramphenicol (4 mg/L) in combination with 3 (10 μM final concentration). Amongst the 20 clinical isolates, the growth of 15 (75%) was impaired, while 5 (25%) were resistant (data not shown). These experiments were performed to study the effect of our compounds on the natural resistance of P. aeruginosa. In addition, we were wondering if compound 3 could also increase susceptibility to other antibiotic families including ß-Lactams, fluoroquinolones and aminoglycosides, that are representative of the main classes of anti-pseudomonal agents. Experiments were performed with the ß-lactams ceftazidime and ticarcillin and ciprofloxacin and amikacin. […] . […] To better characterize compound 3, we first searched for the minimum concentration of compound that allowed killing of bacteria by doxycycline, and PAßN was used as the reference molecule.

The next experiment has as its system P. aeruginosa PA01. Kind of experiment: Checkerboard assay with doxycycline. Type of experiment: cell-based, Pseudomonas aeruginosa. Particulars: Pseudomonas aeruginosa; PA01, checkerboard plate; read-out: Doxycycline MIC (alone). How it is done:
Serial two-fold dilutions of antimicrobial agents were mixed together in a microtiter plate. The range of concentration of each drug was twice the MIC, down to the eleventh serial two-fold dilutions below this amount. Doxycycline was serially diluted along the X-axis, and the polyamino-isoprenic compound or PAßN was diluted along the Y-axis as indicated. Each well was inoculated with a bacterial inoculum of 5 x 10^5 CFU/ml, and the plates were incubated at 37°C for 18 h under aerobic conditions. Each plate also contained a row and a column in which a serial dilution of polyamino-isoprenic compound or doxycycline, respectively, was present alone to determine the MIC. The FIC index was calculated as follows: FIC index = FIC A + FIC B, where FIC A is the MIC of drug A in the combination/MIC of drug A alone and FIC B is the MIC of drug B in the combination/MIC of drug B alone. The combination was considered synergistic when the FIC index is ≤0.5, and antagonistic when the FIC index is > 4 [26].

Experiment [3] concerns clinical isolates of P. aeruginosa. In words: Doxycycline MIC of the clinical isolates (S1 Table). The experiment is classed as cell-based. Particulars: Pseudomonas aeruginosa. How it is done:
The P. aeruginosa strains used in this study are described in Table 1. In addition, a series of 20 clinical isolates of P. aeruginosa obtained from the Hôpital d’Instruction des Armées Laveran, HIA-Laveran (Marseille, France) were also used in this study (S1 Table). Strains were stored at -80°C in 15% (v/v) glycerol for cryo-protection. Bacteria were routinely maintained on Mueller-Hinton (MH) agar plates and grown in cation-adjusted MH broth (MHBII) at 37°C.
as §1
Isolates Sampling location Sampling date Patient age Doxycycline MIC Main antibiotic resistance
AMK, LVX, OFX, TET, MIN, TGC, CHL, NET, CAR
PA2013-LAV17 Redon drain 15/12/2012 81 32 PIP, PIP/TZP, AZT, CAZ, TIC, TCC, FEP, FOS, TET,
TIC : ticarcillin, TCC : ticarcillin/clavulanic acid, FOS : fosfomycin, TET : tetracycline, MIN, minocycline, TCG, tigecycline, CAR : carbenicillin, PIP :
piperacillin, PIP/TZP : piperacillin/tazobactam, GEN : gentamycin, CAZ : ceftazidime, FEP : cefepime, TOB : tobramycin, IPM : imipenem, CIP :
ciprofloxacin, AMK : amikacin, LVX : levofloxacin, OFX : ofloxacin, NET : netilmicin, STR, streptomycin, MEM : meropenem.

The next experiment relates to P. aeruginosa PA01 (wt). Kind of experiment: Antibiotic susceptibility testing (broth micro-dilution MIC), strain PA01. The experiment is classed as cell-based, Pseudomonas aeruginosa. Particulars: for MIC: Pseudomonas aeruginosa. The procedure: as §1, §2
Background: Broth dilution looks for growth in wells or tubes with falling amounts of substance.

Experiment [4] concerns P. aeruginosa PA0-7H (Mex EF overproducer). In words: Antibiotic susceptibility testing (broth micro-dilution MIC), strain PA0-7H. The experiment is classed as cell-based, Pseudomonas aeruginosa. The note with it: Pseudomonas aeruginosa. The procedure:
as §1, §3

For experiment [5], the system named is P. aeruginosa CMZ091 (Mex XY overproducer). Kind of experiment: Antibiotic susceptibility testing (broth micro-dilution MIC), strain CMZ091. Type of experiment: cell-based, Pseudomonas aeruginosa. The note with it: Pseudomonas aeruginosa. How it is done: as §1, §3
[6] abbreviates: read-out: Minimal Inhibitory Concentration.
Setting [7] is: PA01, antibiotic alone (∅), S3 Table, read-out: MIC.

On to `C[C@H]1c2cccc(O)c2C(=O)C2=C(O)[C@]3(O)C(=O)C(C(N)=O)=C(O)[C@@H](N(C)C)[C@@H]3[C@@H](O)[C@@H]21` [doxycycline], for which the MIC in experiment [1] (setting [6]) was 16 µg/mL; in experiment [2] (setting [6]), more than 32 µg/mL; with P. aeruginosa PA01, 32 µg/mL; in experiment [3] (isolate PA2013-LAV01), 32 µg/mL; in experiment [3] (isolate PA2013-LAV02), 32 µg/mL; in experiment [3] (isolate PA2013-LAV03), more than 32 µg/mL. The MIC in experiment [3] (isolate PA2013-LAV04) was 32 µg/mL; in experiment [3] (isolate PA2013-LAV05), more than 32 µg/mL; in experiment [3] (isolate PA2013-LAV06), 32 µg/mL; in experiment [3] (isolate PA2013-LAV07), 32 µg/mL; in experiment [3] (isolate PA2013-LAV08), 32 µg/mL; in experiment [3] (isolate PA2013-LAV09) it was more than 32 µg/mL. For the same molecule, the MIC in experiment [3] (isolate PA2013-LAV10) is 32 µg/mL; in experiment [3] (isolate PA2013-LAV11), 32 µg/mL; in experiment [3] (isolate PA2013-LAV12) it was 32 µg/mL; in experiment [3] (isolate PA2013-LAV13), 32 µg/mL; in experiment [3] (isolate PA2013-LAV14) it was more than 32 µg/mL; in experiment [3] (isolate PA2013-LAV15) it was more than 32 µg/mL. Moreover, the MIC is 32 µg/mL in experiment [3] (isolate PA2013-LAV16); 32 µg/mL in experiment [3] (isolate PA2013-LAV17); more than 32 µg/mL in experiment [3] (isolate PA2013-LAV18); 32 µg/mL in experiment [3] (isolate PA2013-LAV19); more than 32 µg/mL in experiment [3] (isolate PA2013-LAV20); 32 µg/mL in the experiment on P. aeruginosa PA01 (wt) (PA01, wt, mean of 3 independent experiments, read-out: Minimal Inhibitory Concentration). For the same molecule, the MIC in experiment [4] (setting [6]) was more than 32 µg/mL.
For the molecule polymyxin-B, the “Minimal Inhibitory Concentration” value with P. aeruginosa PA01 (wt) (PA01, wt) was less than 10 µM.
With `O=C(O)c1cn(C2CC2)c2cc(N3CCNCC3)c(F)cc2c1=O` [Ciprofloxacin, ciprofloxacin], the MIC was 0.5 µg/mL in experiment [5], 0.5 to 1 µg/mL in experiment [2] and 4 µg/mL in experiment [4].
In the case of `CC(C)(O/N=C(\C(=O)N[C@@H]1C(=O)N2C(C(=O)[O-])=C(C[n+]3ccccc3)CS[C@H]12)c1csc(N)n1)C(=O)O` [Ceftazidime, ceftazidime], the values for the MIC (in experiment [2]; in the experiment on P. aeruginosa PA01 (wt) (setting [7]); in experiment [4]) were 8 µg/mL, 2 µg/mL and 1 µg/mL, respectively.
With `CC1(C)S[C@@H]2[C@H](NC(=O)[C@H](C(=O)O)c3ccsc3)C(=O)N2[C@H]1C(=O)O` [Ticarcillin, ticarcillin], the MIC in experiment [5] is 16 to 32 µg/mL; in experiment [1], 32 to 64 µg/mL; in experiment [2], more than 64 µg/mL; in the experiment on P. aeruginosa PA01 (wt) (setting [7]) it was 32 to 64 µg/mL; in experiment [4], 8 µg/mL.
On to `NCC[C@H](O)C(=O)N[C@@H]1C[C@H](N)[C@@H](O[C@H]2O[C@H](CN)[C@@H](O)[C@H](O)[C@H]2O)[C@H](O)[C@H]1O[C@H]1O[C@H](CO)[C@@H](O)[C@H](N)[C@H]1O` [Amikacin, amikacin], for which the MIC in experiment [5] was 32 µg/mL; in experiment [1], 1 µg/mL; in experiment [2], 4 µg/mL; with P. aeruginosa PA01 (wt) (setting [7]), 8 µg/mL; in experiment [4] it was 4 µg/mL.
